Laboratory results reported in patent US20040082635A1, “Fused cyclic compounds and medicinal use thereof” (priority 2001, published 2004).
Counter-ions that a name gives are not always drawn. Each block holds one compound with its values, some of them ahead of it.

Biological target: T1, HCV polymerase (Hepatitis C virus genotype 1b, UniProt P26663)
T1 construct: a region encoding NS5B (591 amino acids; J Virol 1991 Mar, 65(3), 1105-13) was amplified by PCR; 6 His (N); made in house; host or cells: Escherichia coli
T1 sequence (P26663 2420-3010): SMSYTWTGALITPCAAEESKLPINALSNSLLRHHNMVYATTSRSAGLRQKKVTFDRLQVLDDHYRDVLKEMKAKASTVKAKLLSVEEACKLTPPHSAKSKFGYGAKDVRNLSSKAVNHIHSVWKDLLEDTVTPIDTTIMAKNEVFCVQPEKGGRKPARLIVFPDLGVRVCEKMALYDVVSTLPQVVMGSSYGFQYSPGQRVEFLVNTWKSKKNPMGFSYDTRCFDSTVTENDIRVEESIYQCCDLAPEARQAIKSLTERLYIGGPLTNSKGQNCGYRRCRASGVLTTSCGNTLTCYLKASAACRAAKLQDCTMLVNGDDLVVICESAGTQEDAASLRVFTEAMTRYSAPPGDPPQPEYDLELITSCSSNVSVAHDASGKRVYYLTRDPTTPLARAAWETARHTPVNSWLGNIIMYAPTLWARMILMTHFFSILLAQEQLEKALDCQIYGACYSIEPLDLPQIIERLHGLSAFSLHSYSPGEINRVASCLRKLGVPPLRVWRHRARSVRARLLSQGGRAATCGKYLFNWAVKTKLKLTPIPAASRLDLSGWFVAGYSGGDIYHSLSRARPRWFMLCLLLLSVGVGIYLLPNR
Assay: biochemical
Details: read-out: HCV polymerase inhibitory activity IC50

Structure (SMILES): O=C(O)c1ccc2c(c1)nc(-c1ccc(OCc3cc(N4CCCS4(=O)=O)ccc3-c3ccc(Cl)cc3)cc1F)n2C1CCCCC1 [Example 446, 2-{4-[2-(4-chlorophenyl)-5-(1,1-dioxoisothiazolidin-2-yl)benzyloxy]-2-fluorophenyl}-1-cyclohexylbenzimidazole-5-carboxylic acid hydrochloride]
IC50: 16 nM

Structure (SMILES): CN(C)S(=O)(=O)c1ccc(-c2ccc(Cl)cc2)c(COc2ccc(-c3nc4cc(C(=O)O)ccc4n3C3CCCCC3)cc2)c1 [Example 279, 2-{4-[2-(4-chlorophenyl)-5-dimethylsulfamoylbenzyloxy]phenyl}-1-cyclohexylbenzimidazole-5-carboxylic acid hydrochloride]
IC50: 17 nM

Structure (SMILES): O=C(O)c1ccc2c(c1)nc(-c1ccc(OCc3cc(N4CCCCC4=O)ccc3-c3ccc(Cl)cc3)cc1F)n2C1CCCCC1 [Example 371, 2-{4-[2-(4-chlorophenyl)-5-(2-oxopiperidin-1-yl)benzyloxy]-2-fluorophenyl}-1-cyclohexylbenzimidazole-5-carboxylic acid hydrochloride]
IC50: 15 nM

Structure (SMILES): O=C(O)c1ccc2c(c1)nc(-c1ccc(OCc3cc(C(=O)NCc4ccccn4)ccc3-c3ccc(Cl)cc3)cc1)n2C1CCCCC1 [Example 323, 2-{4-[2-(4-chlorophenyl)-5-{N-(2-pyridylmethyl)carbamoyl}-benzyloxy]phenyl}-1-cyclohexylbenzimidazole-5-carboxylic acid dihydrochloride]
IC50: 18 nM

Structure (SMILES): CC(=O)N[C@@H](COc1ccc(-c2nc3cc(C(=O)O)ccc3n2C2CCCCC2)cc1)c1ccccc1 [Example 162, 2-{4-[(2R)-2-acetylamino-2-phenylethoxy]phenyl}-1-cyclohexylbenzimidazole-5-carboxylic acid]
IC50: 430 nM

Structure (SMILES): CC(C)NC(=O)c1ccc(COc2ccc(-c3nc4cc(C(=O)O)ccc4n3C3CCCCC3)cc2)c(-c2ccc(Cl)cc2)c1 [Example 350, 2-{4-[2-(4-chlorophenyl)-4-(isopropylcarbamoyl)benzyloxy]phenyl}-1-cyclohexylbenzimidazole-5-carboxylic acid hydrochloride]
IC50: 20 nM

Structure (SMILES): O=C(O)c1ccc2c(c1)nc(-c1ccc(OC(c3ccccc3)c3ccccc3)cc1)n2C1CCCCC1 [Example 82, 1-cyclohexyl-2-[4-(diphenylmethoxy)phenyl]benzimidazole-5-carboxylic acid]
IC50: 97 nM

Structure (SMILES): CN(C)C(=O)c1ccc(-c2ccc(F)cc2)c(COc2ccc(-c3nc4cc(C(=O)O)ccc4n3C3CCCCC3)cc2)c1 [Example 360, 2-{4-[5-(dimethylcarbamoyl)-2-(4-fluorophenyl)benzyloxy]phenyl}-1-cyclohexylbenzimidazole-5-carboxylic acid hydrochloride]
IC50: 14 nM

Structure (SMILES): CN1CCC(COc2cccc(Oc3ccc(-c4nc5cc(C(=O)O)ccc5n4C4CCCCC4)cc3)c2)CC1 [Example 211, 1-cyclohexyl-2-{4-[3-{(1-methyl-4-piperidyl)methoxy}phenoxy]-phenyl}benzimidazole-5-carboxylic acid]
IC50: 59 nM

Structure (SMILES): NC(=O)COCc1nc(-c2ccc(F)cc2)c(COc2ccc(-c3nc4cc(C(=O)O)ccc4n3C3CCCCC3)cc2)s1 [Example 428, 2-{4-[{4-(4-fluorophenyl)-2-[(carbamoylmethoxy)methyl]thiazol-5-yl}methoxy]phenyl}-1-cyclohexylbenzimidazole-5-carboxylic acid hydrochloride]
IC50: 26 nM

Structure (SMILES): CC(C)NC(=O)c1ccc(-c2ccc(Cl)cc2)c(COc2ccc(-c3nc4cc(C(=O)O)ccc4n3C3CCSCC3)cc2)c1 [Example 416, 2-{4-[2-(4-chlorophenyl)-5-(isopropylcarbamoyl)benzyloxy]phenyl}-1-(tetrahydrothiopyran-4-yl)benzimidazole-5-carboxylic acid hydrochloride]
IC50: 24 nM

Structure (SMILES): CC(C)NC(=O)c1ccc(-c2ccc(Cl)cc2)c(COc2ccc(-c3nc4cc(S(N)(=O)=O)ccc4n3C3CCCCC3)c(F)c2)c1 [Example 447, 3-{[4-(5-aminosulfonyl-1-cyclohexylbenzimidazol-2-yl)-3-fluorophenoxy]methyl}-4-(4-chlorophenyl)-N-isopropylbenzamide]
IC50: 120 nM

Structure (SMILES): CNC(=O)c1nc(-c2ccc(F)cc2)c(COc2ccc(-c3nc4cc(C(=O)O)ccc4n3C3CCCCC3)c(F)c2)s1 [Example 429, 2-{4-[{4-(4-fluorophenyl)-2-(methylcarbamoyl)thiazol-5-yl}methoxy]-2-fluorophenyl}-1-cyclohexylbenzimidazole-5-carboxylic acid hydrochloride]
IC50: 17 nM

Structure (SMILES): CSc1ccc(-c2ccc(Cl)cc2COc2ccc(-c3nc4cc(C(=O)O)ccc4n3C3CCCCC3)cc2)cc1 [Example 166, 2-{4-[3-chloro-6-(4-methylthiophenyl)benzyloxy]phenyl}-1-cyclohexylbenzimidazole-5-carboxylic acid]
IC50: 55 nM

Structure (SMILES): COc1ccc(-c2ccc(Cl)cc2)c(COc2ccc(-c3nc4cc(C(=O)O)cnc4n3C3CCCCC3)cc2)c1 [Example 701, 2-{4-[2-(4-chlorophenyl)-5-methoxybenzyloxy]phenyl}-3-cyclohexyl-3H-imidazo[4,5-b]pyridine-6-carboxylic acid]
IC50: 52 nM

Structure (SMILES): O=C(O)c1ccc2c(c1)nc(-c1ccc(OCc3ccc(-c4nnn[nH]4)cc3-c3ccc(Cl)cc3)cc1)n2C1CCCCC1 [Example 237, 2-{4-[2-(4-chlorophenyl)-4-(5-tetrazolyl)benzyloxy]phenyl}-1-cyclohexylbenzimidazole-5-carboxylic acid]
IC50: 15 nM

Structure (SMILES): CN(C)C(=O)c1ccc(-c2ccc(Cl)cc2)c(COc2ccc(-c3nc4cc(C(=O)O)ccc4n3C3CCCC3)c(F)c2)c1 [Example 410, 2-{4-[2-(4-chlorophenyl)-5-(dimethylcarbamoyl)benzyloxy]-2-fluorophenyl}-1-cyclopentylbenzimidazole-5-carboxylic acid hydrochloride]
IC50: 18 nM

Structure (SMILES): CCCN(C(C)=O)c1ccc(-c2ccc(Cl)cc2)c(COc2ccc(-c3nc4cc(C(=O)O)ccc4n3C3CCCCC3)c(F)c2)c1 [Example 460, 2-[4-{2-(4-chlorophenyl)-5-(N-acetyl-N-propylamino)benzyloxy}-2-fluorophenyl]-1-cyclohexylbenzimidazole-5-carboxylic acid hydrochloride]
IC50: 17 nM

Structure (SMILES): O=C(O)c1ccc2c(c1)nc(-c1cc(C(c3cccc(F)c3)c3cccc(F)c3)c(O)cc1F)n2C1CCCCC1 [Example 440, 2-{5-[bis(3-fluorophenyl)methyl]-2-fluoro-4-hydroxyphenyl}-1-cyclohexylbenzimidazole-5-carboxylic acid]
IC50: 70 nM

Structure (SMILES): O=C(O)c1ccc2c(c1)nc(-c1ccc(OCc3cc(C(=O)NCC(O)CO)ccc3-c3ccc(Cl)cc3)cc1F)n2C1CCCCC1 (stereo not drawn) [Example 383, 2-{4-[2-(4-chlorophenyl)-5-{(2,3-dihydroxypropyl)carbamoyl}-benzyloxy]-2-fluorophenyl}-1-cyclohexylbenzimidazole-5-carboxylic acid hydrochloride]
IC50: 13 nM

Structure (SMILES): O=C(O)c1ccc2c(c1)nc(-c1ccc(OCc3cc(Cl)ccc3-c3cc(Cl)cc(Cl)c3)cc1)n2C1CCCCC1 [Example 147, 2-{4-[3-chloro-6-(3,5-dichlorophenyl)benzyloxy]phenyl}-1-cyclohexylbenzimidazole-5-carboxylic acid]
IC50: 310 nM

Structure (SMILES): O=C(O)c1ccc2c(c1)nc(-c1ccc(OCC(=O)c3ccccc3)cc1)n2C1CCCCC1 [Example 91, 2-(4-benzoylmethoxyphenyl)-1-cyclohexylbenzimidazole-5-carboxylic acid]
IC50: 530 nM

Structure (SMILES): COc1c(C(=O)O)ccc2c1nc(-c1ccc(OCc3cc(C(=O)NC(C)C)ccc3-c3ccc(Cl)cc3)cc1F)n2C1CCCCC1 [Example 450, 2-[4-{2-(4-chlorophenyl)-5-(isopropylaminocarbonyl)benzyloxy}-2-fluorophenyl]-1-cyclohexyl-4-methoxybenzimidazole-5-carboxylic acid hydrochloride]
IC50: 40 nM

Structure (SMILES): O=C(O)c1ccc2c(c1)nc(-c1ccc(OCc3cc(C(=O)N4CCCCC4)ccc3-c3ccc(Cl)cc3)cc1F)n2C1CCCCC1 [Example 286, 2-{4-[2-(4-chlorophenyl)-5-piperidinocarbonylbenzyloxy]-2-fluorophenyl}-1-cyclohexylbenzimidazole-5-carboxylic acid]
IC50: 14 nM

Structure (SMILES): O=C(O)c1ccc2c(c1)nc(-c1ccc(OCCc3cccc4ccccc34)cc1)n2C1CCCCC1 [Example 103, 1-cyclohexyl-2-{4-[2-(1-naphthyl)ethoxy]phenyl}benzimidazole-5-carboxylic acid]
IC50: 170 nM

Structure (SMILES): O=C(O)c1ccc2c(c1)nc(-c1ccc(OCc3cc(Cl)ccc3Br)cc1)n2C1CCCCC1 [Example 173, 2-[4-(2-bromo-5-chlorobenzyloxy)phenyl]-1-cyclohexylbenzimidazole-5-carboxylic acid]
IC50: 140 nM

IC50: 22 nM
Structure (SMILES): O=C(O)c1ccc2c(c1)nc(-c1ccc(OCc3cc(C(=O)NCc4ccccc4)ccc3-c3ccc(Cl)cc3)cc1)n2C1CCCCC1 [Example 316, 2-{4-[2-(4-chlorophenyl)-5-(benzylcarbamoyl)benzyloxy]phenyl}-1-cyclohexylbenzimidazole-5-carboxylic acid hydrochloride]

Structure (SMILES): COc1ccc(-c2cccc(Oc3ccc(-c4nc5cc(C(=O)O)ccc5n4C4CCCCC4)cc3)c2)cc1 [Example 216, 1-cyclohexyl-2-{4-[3-(4-methoxyphenyl)phenoxy]phenyl}-benzimidazole-5-carboxylic acid]
IC50: 84 nM

Structure (SMILES): O=C(O)c1ccc2c(c1)nc(-c1ccc(OCc3cccc4ccccc34)cc1)n2C1CCCCC1 [Example 86, 1-cyclohexyl-2-[4-(1-naphthyl)methoxyphenyl]benzimidazole-5-carboxylic acid]
IC50: 130 nM

Structure (SMILES): CC(C)=CCOc1ccccc1Oc1ccc(-c2nc3cc(C(=O)O)ccc3n2C2CCCCC2)cc1 [Example 112, 1-cyclohexyl-2-{4-[2-(3-methyl-2-butenyloxy)phenoxy]phenyl}-benzimidazole-5-carboxylic acid]
IC50: 110 nM
